One may read the pEC50 as −log10 of the EC50, conventionally taken in molar units. One may read the solubility as how much of the substance goes into solution per volume. Higher therefore signals a readily soluble substance. Broadly, the pKi is −log10 of the Ki, conventionally taken in molar units. Read a high pKi as a low Ki.

pEC50, pIC50, pKi: −log10 of the molar value. Values after ≈ are worked out from the molar mass of the structure shown. Read-outs that look alike come from different tables or passages of the source.

Data set [1] has as its target T1, human D2R/β-arrestin (Homo sapiens (Human), UniProt P14416). Nature of the data set: β-Arrestin agonist assay (PathHunter). The data set is classed as cell-based. The conditions noted are these: CHO-K1 cell line expressing human D2R/β-arrestin. The gist of the method: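 Readout follows addition of Buffer:Emerald II:Galactor-Star reagent (19:5:1) to agonist-treated plates, measured as luminescence or fluorescence.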

In data set [2] the target is T1, human D2R/β-arrestin. Nature of the data set: Gi/cAMP agonist assay (Lance Ultra cAMP, Forskolin). In kind it is cell-based. The conditions noted are these: CHO-K1 cell line expressing human D2R/β-arrestin. In a few lines: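 Read-out was Lance Ultra competitive TR-FRET (Eu-cAMP tracer plus ULight-anti-cAMP) following forskolin-induced cAMP production. Before forskolin stimulation, compounds were pin-transferred onto the seeded cells for 10 min at 37 °C.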

A short description of data set [3]: Solubility in PBS. In kind it is physicochemical. The note with it: aqueous buffer.
Data set [4] addresses D2 (Homo sapiens (Human), UniProt P14416). Nature of the data set: D2 radioligand binding assay.
The target in data set [5] is T1, human D2R/β-arrestin. The conditions noted are these: read-out: β-arrestin Antagonist.
In data set [6] the target is T1, human D2R/β-arrestin. Nature of the data set: cell-based. The conditions noted are these: cAMP Antagonist, CHO-K1 cell line expressing human D2R/β-arrestin; quinpirole used as agonist.
The nature of data set [7]: Plasma stability, mouse.
Data set [8] in a line: Microsomal stability, mouse.
Data set [9] concerns plasma protein. In words: Plasma protein binding, mouse. The data set is classed as in vitro ADME. The conditions noted are these: for fraction unbound: plasma, read-out: Plasma Protein Binding % bound.
Data set [10] concerns the target T1, human D2R/β-arrestin. The conditions noted are these: read-out: cAMP Antagonist.
Data set [11] relates to plasma protein. Nature of the data set: Plasma protein binding, human. The data set is classed as in vitro ADME. The conditions noted are these: plasma, read-out: Plasma Protein Binding % bound.
Data set [12] deals with plasma protein. In words: Plasma protein binding, rat. The data set is classed as in vitro ADME. The note with it: plasma, read-out: Plasma Protein Binding % bound.
Data set [13] can be described thus: Plasma stability, human. In kind it is in vitro ADME.
Data set [14] is described as follows: Plasma stability, rat. The data set is classed as in vitro ADME.
Data set [15] in a line: Microsomal stability, human. In kind it is in vitro ADME.
Data set [16] in a line: Microsomal stability, rat. The data set is classed as in vitro ADME.
Data set [17] deals with T1, human D2R/β-arrestin. Nature of the data set: cell-based. The conditions noted are these: β-arrestin Antagonist, CHO-K1 cell line expressing human D2R/β-arrestin; quinpirole used as agonist.

T1 sequence (P14416 whole entry): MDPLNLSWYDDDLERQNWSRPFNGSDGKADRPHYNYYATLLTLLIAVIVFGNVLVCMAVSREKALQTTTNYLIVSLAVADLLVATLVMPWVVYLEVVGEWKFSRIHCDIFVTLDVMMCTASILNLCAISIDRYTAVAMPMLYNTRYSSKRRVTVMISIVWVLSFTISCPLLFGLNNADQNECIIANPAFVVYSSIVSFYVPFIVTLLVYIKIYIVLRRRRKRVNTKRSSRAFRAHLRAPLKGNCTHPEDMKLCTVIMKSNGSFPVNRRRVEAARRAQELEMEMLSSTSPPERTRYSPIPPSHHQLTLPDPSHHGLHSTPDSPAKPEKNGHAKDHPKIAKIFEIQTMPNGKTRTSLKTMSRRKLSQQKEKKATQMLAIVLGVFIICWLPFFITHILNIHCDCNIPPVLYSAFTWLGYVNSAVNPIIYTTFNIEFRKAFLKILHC
Chain of D2 (P14416 whole entry): as above

For the molecule `CN(CC1CCN(CCOc2ccccc2)CC1)C(c1ccc(Cl)cc1)c1ccccn1` (single isomer, unassigned) [Compound 79b, 1-(4-chlorophenyl)-N-methyl-N-((1-(2-phenoxyethyl)piperidin-4-yl)methyl)-1-(pyridin-2-yl)methanamine], the pEC50 in [1] is less than 4.52; in [2], 6.00 to 7.00. Moreover, in [3], the concentration in solution (solubility) came to 8 µM (≈ 3.6 µg/mL). The molecule further had a pKi in data set [4] of 6.00 to 7.00. Also, the pIC50 in [5] (CHO-K1 cell line expressing human D2R/β-arrestin, quinpirole used as agonist) was 5.00 to 6.00; in [6] it was less than 4.52. For the same molecule, the “Plasma Stability: % remaining after 5 hours” value (shortened to “Plasma Stability: % remaining”) in [7] is listed as “m100%”. In addition, the “Microsomal Stability: % remaining after 60 minutes” value (“Microsomal Stability: % remaining” for short) in data set [8] is given as “m0%”.
For the molecule `O=C(NC(c1ccc2c(c1)OC(F)(F)O2)c1ccccn1)C1CCN(CCOc2ccccc2)CC1` (single isomer, unassigned) [Compound 119b], the pEC50 is 6.00 to 7.00 in data set [1] and greater than 7.00 in [2]. In addition, the “Plasma Protein Binding % bound” value in [9] is on record as “m97.4%”. The pIC50 in [5] was 5.00 to 6.00; in data set [10], less than 4.52. In addition, the “Plasma Stability: % remaining” value in [7] was “m100%”. In data set [8], the “Microsomal Stability: % remaining” value is listed as “m51%”.
Turning to `O=C(NC(c1ccc(Cl)cc1)c1ccccn1)C1CCN(CCOc2ccccc2F)CC1` (stereo not shown) [Compound 3], the negative logarithm of the EC50 (pEC50) was less than 4.52 in data set [1] and greater than 7.00 in [2]. In data set [3], this molecule returned a solubility of 43 µM (≈ 20.1 µg/mL). The fraction unbound in [11] was 0.246; in data set [9], 0.015; in data set [12], 0.315. Also, the “Plasma Stability: % remaining” value came out at 92% in data set [13], 86% in data set [14] and 100% in data set [7]. For the same molecule, the “Microsomal Stability: % remaining” value is listed as 64% in data set [15], 44% in [16] and 22% in [8]. The pIC50 is 6.00 to 7.00 in data set [17] and less than 4.52 in [6].
On to `O=C(NC(c1ccc(Cl)cc1)c1ccccn1)C1CCN(CCOc2ccccc2C(F)(F)F)CC1` (stereo not shown) [Compound 6], for which the pEC50 in data set [1] and in data set [2] was less than 4.52 in each case. Moreover, the solubility in [3] came out at 0.7 µM (≈ 0.363 µg/mL). The fraction unbound in data set [11] came to 0.007; in data set [9], 0.008. The results for the “Plasma Stability: % remaining” value in data set [13], in data set [14] and in data set [7] were 99%, 69.3% and 98.8%, respectively. The “Microsomal Stability: % remaining” value is 52% in data set [15], 32% in data set [16] and 22% in [8]. In data set [4], the pKi is 6.00 to 7.00. Moreover, the pIC50 in data set [17] and in data set [6] was greater than 7.00 in each case.
`O=C(NC(c1ccc(Cl)cc1)c1ccccn1)C1CCN(CCOc2cccc(C(F)(F)F)c2)CC1` (stereo not shown) [Compound 7, N-((4-chlorophenyl)(pyridin-2-yl)methyl)-1-(2-(3-(trifluoromethyl)phenoxy)ethyl) piperidine-4-carboxamide]: the pEC50 is less than 4.52 in data set [1] and 6.00 to 7.00 in data set [2]. For the same molecule, in [3], the concentration in solution (solubility) was 0.7 µM (≈ 0.363 µg/mL). Moreover, in data set [9], the fraction unbound turned out to be 0.004. The “Plasma Stability: % remaining” value stood at 91.5% in data set [13], 93.5% in data set [14] and 100% in [7]. The entries for the “Microsomal Stability: % remaining” value in data set [15], in [16] and in data set [8] were 87%, 76% and 44%, respectively. Besides, the pIC50 in data set [17] and in data set [6] was 6.00 to 7.00 throughout.

The values above are taken from US10752588B2 (The Broad Institute, Inc., priority 2014, dated 2020).
